Reference: patent US10220024B2, “Method of inhibiting cancer cell, method for detecting cancer cell, and system for detecting cancer cell” (CANON KABUSHIKI KAISHA, priority 2012, dated 2019)
Read-outs that look alike come from different tables or passages of the source.

Assays:
[1] = tested on: K562 ALDH (−) fraction (general cancer cells); assay: Cancer stem-cell selective inhibitory action against chronic myelocytic leukemia cells, ALDH (−) fraction, CellTiter-Glo; type: cell-based, Human; settings: Homo sapiens, 24 hours, relative to 0.1% DMSO, read-out: ALDH(−) (growth rate); for activity at 10 µg/mL: 10 μg/ml; for activity at 1 µg/mL: 1 μg/mL
Protocol: (§1) Human chronic myelocytic leukemia cells, K562, were pre-cultured in RPMI1640 medium containing 10% FBS at 37° C. in a 5% CO2 ambient. Then, a fraction containing 80% or more of cancer stem cells was extracted by use of ALDEFLUOR reagent (manufactured by VERITAS Corporation) and FACSAria flow cytometry (manufactured by Nippon Becton, Dickinson and Company). Subsequently, Compound (5) was added to the medium so as to obtain a final concentration of 10 μg/mL and cultured at 37° C. for 24 hours in a 5% CO2 ambient. The cultured cells were analyzed for viable cell count according to CellTiter-Glo Luminescent Cell Viability Assay (manufactured by Promega KK.). As a reference, the number of cells cultured in a medium containing a 0.1% dimethylsulfoxide solution (hereinafter, simply referred to as DMSO) in place of a medium containing Compound (1), in the aforementioned operation, was used as 0.1. Note that hereinafter, an ALDEFLUOR reagent positive fraction (deemed as cancer stem cells) is represented by ALDH (+), whereas an ALDEFLUOR reagent negative fraction (not deemed as cancer stem cells) is represented by ALDH (−), in some cases.
(§2) The same operation as in Experimental Example 12 was repeated except that Compound (5) in Experimental Example 12 was changed to the compounds shown in Table 4 and final concentrations shown in Table 4 were used and viable cell counts were separately analyzed. Note that the growth rate in Examples herein is a numerical value of the number of cells obtained after culture relative to the number of cells (regarded as 0.1) grown in a medium containing 0.1% DMSO.
(§3) The same operation as in Experimental Example 12 was repeated except that Compound (5) in Experimental Example 12 was changed to Imatinib (manufactured by NOVARTIS), which is a general anticancer drug, and comparative compounds shown in Table 4 and final concentrations shown in Table 4 were used and viable cell counts were separately analyzed.
(§4) The growth suppressive effect of cancer stem cells was evaluated based on the following criteria. Note that the growth rate in Examples herein is a numerical value relative to the number of cells (regarded as 0.1) grown in a medium containing 0.1% DMSO. • A: The value of ALDH (+) is less than 0.5 (growth suppressive effect against cancer stem cells is extremely high) • B: The value of ALDH (+) is 0.5 or more and less than 0.95 (growth suppressive effect against cancer stem cells is high) • C: The value of ALDH (+) is 0.95 or more (no growth suppressive effect against cancer stem cells)
(§5) Furthermore, superiority of cancer stem cells was evaluated by comparing cancer stem cells to cancer cells based on the following criteria. ALDH (+) represents cancer stem cells; whereas ALDH (−) represents general cancer cells. • A: The value of ALDH (+)/ALDH (−) is less than 0.8 (selective inhibitory effect against cancer stem cells is extremely high) • B: The value of ALDH (+)/ALDH (−) is 0.8 or more and less than 0.95 (selective inhibitory effect against cancer stem cells is high) • C: The value of ALDH (+)/ALDH (−) is 0.95 or more (no selective inhibitory effect against cancer stem cells)

[2] = tested on: Human pancreas cancer cells, KLM-1; assay: Cancer cell inhibitory (growth suppressive) action against pancreatic cancer cells, CellTiter-Glo viable cell count; type: cell-based; settings: KLM1, KLM-1, 10 μg/mL, 24 hours
Protocol: (§6) Observation on cancer cell inhibitory (growth suppressive) action against pancreatic cancer cells Human pancreas cancer cells, KLM-1, were pre-cultured in RPMI1640 medium containing 10% FBS at 37° C. in a 5% CO2 ambient. Thereafter, 4,000 cells were seeded per well of a 96-well plate and further cultured for 24 hours. Subsequently, Compound (1) was added to the medium so as to obtain a final concentration of 10 μg/mL and cultured at 37° C. for 24 hours in a 5% CO2 ambient. The cultured cells were analyzed for viable cell count according to CellTiter-Glo Luminescent Cell Viability Assay (manufactured by Promega KK.). As a reference, the number of cells cultured in a medium containing a 0.1% dimethylsulfoxide solution (hereinafter, simply referred to as DMSO) in place of a medium containing Compound (1), in the aforementioned operation, was regarded (100%).
Viable cell count was analyzed in the same manner as in Experimental Example 1 except that Compound (1) of Experimental Example 1 was changed to compounds shown in Table 2.
Viable cell count was analyzed in the same manner as in Experimental Example 1 except that Compound (1) was changed to comparative compounds 1 to 4.
Viable cell counts of Experimental Examples 1 to 7 and Comparative Examples 1 to 4 were analyzed to obtain growth rates.
Evaluation of cancer cell inhibition against the pancreatic cancer cells (KLM-1) (growth suppression) was made based on the following criteria. Note that the growth rate in Examples herein is a numerical value of the number of cells obtained after culture relative to the number of cells (regarded as 100) grown in a medium containing 0.1% DMSO. Evaluation of cancer cell inhibition against the pancreatic cancer cells (KLM-1) was made as follows. • A: Cancer cell growth rate is less than 20% (cancer cell inhibitory (growth suppressive) effect is extremely high) • B: Cancer cell growth rate is 20% or more and less than 50% (cancer cell inhibitory (growth suppressive) effect is high) • C: Cancer cell growth rate is 50% or more (cancer cell inhibitory (growth suppressive) effect is low)

[3] = tested on: K562 ALDH (+) fraction (cancer stem cells); assay: Cancer stem-cell selective inhibitory action against chronic myelocytic leukemia cells, ALDH (+) fraction, CellTiter-Glo; type: cell-based; settings: Homo sapiens, 24 hours; for activity at 10 µg/mL: 10 μg/ml; for activity at 1 µg/mL: 1 μg/mL
Protocol: as §1, §2, §3, §4, §5

[4] = Measurement of fluorescent property of compound (spectrofluorometer); type: physicochemical; settings: 5 μM DMSO solution
Protocol: The excitation wavelength and fluorescence wavelength of the compound were measured by a FL4500 spectrofluorometric measuring machine manufactured by Hitachi High-Technologies Corporation.

[5] = tested on: Prostatic cancer cells, PC-3; assay: Cancer cell inhibitory (growth suppressive) action against prostatic cancer cells, CellTiter-Glo viable cell count; type: cell-based; settings: PC-3, 10 μg/mL, 24 hours
Protocol: as §6, with “Prostatic” for “Observation on cancer cell inhibitory (growth suppressive) action against pancreatic cancer cells Human pancreas”, “PC-3,” for “KLM-1,”, “(11)” for “(1)”, “(11),” for “(1),”, “used as 100.” for “regarded (100%).”
Viable cell count was analyzed in the same manner as in Experimental Example 8 except that the compounds shown in Table 3 were used in place of Compound (11) of Experimental Example 8.
Viable cell count was analyzed in the same manner as in Experimental Example 8 except that comparative compounds 1 to 4 were used in place of Compound (11) of Experimental Example 8.
The growth rate in Examples herein is a numerical value of the number of cells obtained after culture relative to the number of cells (regarded as 100) grown in a medium containing 0.1% DMSO.
Evaluation of cancer cell inhibition against the prostatic cancer cells (PC-3) was made as follows. • A: Cancer cell growth rate is less than 20% (cancer cell inhibitory (growth suppressive) effect is extremely high) • B: Cancer cell growth rate is 20% or more and less than 50% (cancer cell inhibitory (growth suppressive) effect is high) • C: Cancer cell growth rate is 50% or more (cancer cell inhibitory (growth suppressive) effect is low)

[6] = read-out: Evaluation (cancer cell growth rate)
[7] = relative to 0.1% DMSO (100), read-out: Cancer cell growth rate (%)
[8] = read-out: Growth suppression evaluated
[9] = relative to 0.1% DMSO, read-out: ALDH(+) (growth rate)

CCN1c2ccc(/C=C/C3=[N+](CC)c4ccc(OC)cc4C34CCCCC4)cc2C2CCCC21 (stereo not shown) [Compound 8]
activity at 10 µg/mL [1]: 32% | activity at 10 µg/mL [2, 6]: 20 to 50% | activity at 10 µg/mL [2, 7]: 24.3% | activity at 10 µg/mL [3, 8]: < 50% | activity at 10 µg/mL [3, 9]: 23% | Excitation wavelength λex [4]: 586 nm | Fluorescence wavelength λem [4]: 623 nm

CCC[N+]1=C(/C=C/C=C/c2ccc(N(C)C)cc2)C(C)(C)c2ccccc21 [Compound 26]
activity at 10 µg/mL [2, 6]: < 20% | activity at 10 µg/mL [2, 7]: 8.9% | activity at 10 µg/mL [5, 6]: < 20% | activity at 10 µg/mL [5, 7]: 5.8% | Excitation wavelength λex [4]: 609 nm | Fluorescence wavelength λem [4]: 692 nm

CC1(C)C(/C=C/c2ccc3c(c2)C2CCCC2N3c2ccc(C=C(c3ccccc3)c3ccccc3)cc2)=[N+](CCC(=O)O)c2ccccc21 (stereo not shown) [Compound 31]
Excitation wavelength λex [4]: 611 nm | Fluorescence wavelength λem [4]: 720 nm

COc1ccc(N2c3ccc(/C=C/C4=[N+](CCC(=O)O)c5ccccc5C4(C)C)cc3C3CCCC32)cc1 (stereo not shown) [Compound 32]
activity at 10 µg/mL [1]: 90% | activity at 10 µg/mL [3, 8]: 50 to 95% | activity at 10 µg/mL [3, 9]: 78% | Excitation wavelength λex [4]: 592 nm | Fluorescence wavelength λem [4]: 671 nm

COc1ccc(N2c3ccc(/C=C/c4sc5ccccc5[n+]4CC(=O)O)cc3C3CCCC32)cc1 (stereo not shown) [Compound 33]
activity at 10 µg/mL [1]: 101% | activity at 10 µg/mL [3, 8]: 50 to 95% | activity at 10 µg/mL [3, 9]: 90% | Excitation wavelength λex [4]: 560 nm | Fluorescence wavelength λem [4]: 677 nm

CCN1c2ccc(/C=C/C3=[N+](C)c4ccccc4C3(C)C)cc2C2CCCC21 (stereo not shown) [Compound 34]
activity at 10 µg/mL [1]: 24% | activity at 10 µg/mL [3, 8]: < 50% | activity at 10 µg/mL [3, 9]: 17% | Excitation wavelength λex [4]: 575 nm | Fluorescence wavelength λem [4]: 611 nm

CCn1c2ccccc2c2cc(/C=C/C3=[N+](C)c4ccccc4C3(C)C)ccc21 [Compound 36]
activity at 10 µg/mL [1]: 20% | activity at 10 µg/mL [3, 8]: < 50% | activity at 10 µg/mL [3, 9]: 13% | Excitation wavelength λex [4]: 488 nm | Fluorescence wavelength λem [4]: 594 nm

COc1ccc(N2c3ccc(/C=C/C4=[N+](C)c5ccccc5C4(C)C)cc3C3CCCC32)cc1 (stereo not shown) [Compound 38]
activity at 10 µg/mL [1]: 11% | activity at 10 µg/mL [3, 8]: < 50% | activity at 10 µg/mL [3, 9]: 5% | Excitation wavelength λex [4]: 573 nm | Fluorescence wavelength λem [4]: 670 nm

CCN1c2ccc(/C=C/C3=[N+](C)c4ccc5ccccc5c4C3(C)C)cc2C2CCCC21 (stereo not shown) [Compound 39]
activity at 10 µg/mL [1]: 13% | activity at 10 µg/mL [3, 8]: < 50% | activity at 10 µg/mL [3, 9]: 6% | Excitation wavelength λex [4]: 591 nm | Fluorescence wavelength λem [4]: 626 nm

CCn1c2ccccc2c2cc(/C=C/C3=[N+](C)c4ccc5ccccc5c4C3(C)C)ccc21 [Compound 40]
activity at 1 µg/mL [1]: 85% | activity at 10 µg/mL [1]: 13% | activity at 1 µg/mL [3, 8]: 50 to 95% | activity at 1 µg/mL [3, 9]: 73% | activity at 10 µg/mL [3, 8]: < 50% | activity at 10 µg/mL [3, 9]: 6%

CCN1C(=O)/C(=c2\s/c(=C/c3ccc4c(c3)c3ccccc3n4CC)c(=O)n2CC(=O)O)SC1=S [compound 1, reference compound]
activity at 10 µg/mL [2, 6]: ≥ 50% | activity at 10 µg/mL [2, 7]: 99% | activity at 10 µg/mL [5, 6]: ≥ 50% | activity at 10 µg/mL [5, 7]: 104%

CCOC(=O)Cn1c(=O)/c(=C\c2ccc3c(c2)C2CCCC2N3c2ccccc2)s/c1=C1/SC(=S)N(CC)C1=O (stereo not shown) [compound 2, reference compound]
activity at 10 µg/mL [2, 6]: ≥ 50% | activity at 10 µg/mL [2, 7]: 91% | activity at 10 µg/mL [5, 6]: ≥ 50% | activity at 10 µg/mL [5, 7]: 88.8%

COc1ccc(N2c3ccc(/C=C4/SC(=S)N(CCC(=O)O)C4=O)cc3C3CCCC32)cc1 (stereo not shown) [compound 3, reference compound]
activity at 10 µg/mL [2, 6]: ≥ 50% | activity at 10 µg/mL [2, 7]: 95% | activity at 10 µg/mL [5, 6]: ≥ 50% | activity at 10 µg/mL [5, 7]: 86.5%

CCn1c2ccccc2c2cc(/C=C3/SC(=S)N(CC(=O)O)C3=O)ccc21 [compound 4, reference compound]
activity at 10 µg/mL [2, 6]: ≥ 50% | activity at 10 µg/mL [2, 7]: 100% | activity at 10 µg/mL [5, 6]: ≥ 50% | activity at 10 µg/mL [5, 7]: 99.9%

O=C(O)Cn1c(=O)/c(=C\c2ccc3c(c2)C2CCCC2N3c2ccccc2)s/c1=C1/SC(=S)N(Cc2ccccc2)C1=O (stereo not shown) [compound 5, reference compound]
activity at 1 µg/mL [1]: 97% | activity at 10 µg/mL [1]: 90% | activity at 1 µg/mL [3, 8]: ≥ 95% | activity at 1 µg/mL [3, 9]: 106% | activity at 10 µg/mL [3, 8]: ≥ 95% | activity at 10 µg/mL [3, 9]: 107%
